Values after ≈ are worked out from the molar mass of the structure shown.
Columns and labels:
[1] = Cytotoxicity against African green monkey Vero cells treated for 72 hrs by MTT assay; format: toxicity, cell-based; conditions: chlorocebus sabaeus
[2] = biological target: Voltage-gated inwardly rectifying potassium channel KCNH2 (Homo sapiens, UniProt Q12809)
[3] = tested on: Mycobacterium tuberculosis; test: Antibacterial activity against Mycobacterium tuberculosis in acute Mtb infection BALB/c mouse model assessed as reduction in log10 CFU in lungs at 100 mg/kg for 3 weeks; format: functional
[4] = tested on: Mycobacterium tuberculosis; test: microbe, parasite or virus in culture; conditions: H37Rv
Description: Antibacterial activity against Mycobacterium tuberculosis H37Rv assessed as inhibition of bacterial growth

[5] = tested on: Mycobacterium tuberculosis; test: Antibacterial activity against Mycobacterium tuberculosis in chronic Mtb infection BALB/c mouse model assessed as reduction in log10 CFU in lungs at 200 mg/kg for 4 weeks; format: functional
HepG2 [6] = test: Cytotoxicity against human HepG2 cells treated for 72 hrs by MTT assay; format: functional
[7] = tested on: Mycobacterium tuberculosis; format: functional; conditions: H37Rv, 168 h, time 7 day
[8] = tested on: Mycobacterium tuberculosis; test: Bactericidal activity against Mycobacterium tuberculosis H37Rv in chronic Mtb infection BALB/c mouse model assessed as log10 CFU kill at 20 mg/kg, po qd via gavage measured after 4 weeks; format: functional
[9] = tested on: Mycobacterium tuberculosis; test: Antibacterial activity against Mycobacterium tuberculosis assessed as inhibition of bacterial growth; format: functional
[10] = tested on: Mycobacterium tuberculosis; format: functional; conditions: H37Rv, 168 h, time 7 day; remark: listed apart in the source
[11] = tested on: Mycobacterium tuberculosis; format: functional, H37Rv; conditions: dose 25 mg/kg; route po; time 8 weeks
[12] = tested on: Mycobacterium tuberculosis; format: functional, H37Rv; conditions: dose 50 mg/kg/day; route po; time <= 28 day
A549 [13] = test: Cytotoxicity against human A549 cells; format: functional
[14] = Half life in overnight fasted Sprague-Dawley rat at 5 mg/kg measured for 0.25 to 24 hrs; format: ADME, organism-based; conditions: in vivo, time 0.25-24 hrs
[15] = AUC in overnight fasted Sprague-Dawley rat at 5 mg/kg measured for 0.25 to 24 hrs; format: ADME, organism-based; parameters: time upper 24 hrs, dose 5 mg/kg, time lower 0.25 hrs; conditions: in vivo
[16] = Absolute oral bioavailability in overnight fasted Sprague-Dawley rat at 5 mg/kg measured for 0.25 to 24 hrs; format: ADME, organism-based; conditions: in vivo, time 0.25-24 hrs
A549 [17] = test: Potency index, ratio of SKLB-TB1001 to test compound CC50 for cytotoxicity against human A549 cells; format: functional
[18] = tested on: Mycobacterium tuberculosis; format: functional; conditions: H37Rv
[19] = tested on: Mycobacterium tuberculosis; test: Antibacterial activity against Mycobacterium tuberculosis Erdman in acute Mtb infection BALB/c mouse model assessed as reduction in log10 CFU in lungs at 50 mg/kg, po via gavage for 8 weeks; format: functional
[20] = tested on: Mycobacterium tuberculosis; test: Bactericidal activity against Mycobacterium tuberculosis in macrophages; format: functional, Macrophage
[21] = tested on: Mycobacterium tuberculosis; format: functional; conditions: H37Rv; remark: listed apart in the source
[22] = Aqueous solubility of compound in PBS at pH 7.4 incubated for 1 hr; format: physicochemical
[23] = tested on: Mycobacterium tuberculosis; format: functional; conditions: dose 50 mg/kg; route po; time 4 weeks
[24] = Oral bioavailability in Swiss Webster mouse at 10 mg/kg measured for 0.25 to 24 hrs by LC-MS/MS analysis; format: ADME, organism-based; conditions: in vivo, time 0.25-24 hrs
[25] = tested on: Mycobacterium tuberculosis; format: functional; conditions: dose 100 mg/kg; route po; time 4 weeks
[26] = tested on: Mycobacterium tuberculosis; format: functional; conditions: H37Rv, time 14-21 day
[27] = tested on: Mycobacterium tuberculosis; format: functional; conditions: H37Rv, 336 h, time 14 day
[28] = tested on: Mycobacterium tuberculosis; test: Antibacterial activity against non-replicating Mycobacterium tuberculosis assessed as inhibition of bacterial growth; format: functional
[29] = tested on: Mycobacterium tuberculosis; format: functional; conditions: H37Rv, 168 h, time 7 day; remark: listed apart in the source
[30] = Cytotoxicity against human MRC5 cells; format: toxicity, cell-based
[31] = tested on: Mycobacterium tuberculosis; test: Antibacterial activity against Mycobacterium tuberculosis Erdman in acute Mtb infection BALB/c mouse model assessed as reduction in log10 CFU in lungs at 200 mg/kg, po daily via gavage for 3 weeks; format: functional
[32] = Protein binding in human plasma; format: ADME, cell-free; conditions: read-out: PPB (converted)
[33] = Solubility of the compound; format: physicochemical
[34] = tested on: Mycobacterium tuberculosis; test: Antibacterial activity against Mycobacterium tuberculosis Erdman in acute Mtb infection BALB/c mouse model assessed as reduction in log10 CFU in lungs at 150 mg/kg, po via gavage daily for 4 weeks; format: functional
HepG2 [35] = test: Cytotoxicity against human HepG2 cells; format: functional
[36] = tested on: Mycobacterium tuberculosis; format: functional; conditions: H37Rv, time 6 day
[37] = tested on: Mycobacterium tuberculosis; format: functional, H37Rv; conditions: dose 50 mg/kg; route po; time 4 weeks
[38] = Selectivity index, ratio of CC50 for human HepG2 cells to MIC99 for Mycobacterium tuberculosis H37Rv; format: toxicity

Voltage-gated inwardly rectifying potassium channel KCNH2, sequence (Q12809 whole entry): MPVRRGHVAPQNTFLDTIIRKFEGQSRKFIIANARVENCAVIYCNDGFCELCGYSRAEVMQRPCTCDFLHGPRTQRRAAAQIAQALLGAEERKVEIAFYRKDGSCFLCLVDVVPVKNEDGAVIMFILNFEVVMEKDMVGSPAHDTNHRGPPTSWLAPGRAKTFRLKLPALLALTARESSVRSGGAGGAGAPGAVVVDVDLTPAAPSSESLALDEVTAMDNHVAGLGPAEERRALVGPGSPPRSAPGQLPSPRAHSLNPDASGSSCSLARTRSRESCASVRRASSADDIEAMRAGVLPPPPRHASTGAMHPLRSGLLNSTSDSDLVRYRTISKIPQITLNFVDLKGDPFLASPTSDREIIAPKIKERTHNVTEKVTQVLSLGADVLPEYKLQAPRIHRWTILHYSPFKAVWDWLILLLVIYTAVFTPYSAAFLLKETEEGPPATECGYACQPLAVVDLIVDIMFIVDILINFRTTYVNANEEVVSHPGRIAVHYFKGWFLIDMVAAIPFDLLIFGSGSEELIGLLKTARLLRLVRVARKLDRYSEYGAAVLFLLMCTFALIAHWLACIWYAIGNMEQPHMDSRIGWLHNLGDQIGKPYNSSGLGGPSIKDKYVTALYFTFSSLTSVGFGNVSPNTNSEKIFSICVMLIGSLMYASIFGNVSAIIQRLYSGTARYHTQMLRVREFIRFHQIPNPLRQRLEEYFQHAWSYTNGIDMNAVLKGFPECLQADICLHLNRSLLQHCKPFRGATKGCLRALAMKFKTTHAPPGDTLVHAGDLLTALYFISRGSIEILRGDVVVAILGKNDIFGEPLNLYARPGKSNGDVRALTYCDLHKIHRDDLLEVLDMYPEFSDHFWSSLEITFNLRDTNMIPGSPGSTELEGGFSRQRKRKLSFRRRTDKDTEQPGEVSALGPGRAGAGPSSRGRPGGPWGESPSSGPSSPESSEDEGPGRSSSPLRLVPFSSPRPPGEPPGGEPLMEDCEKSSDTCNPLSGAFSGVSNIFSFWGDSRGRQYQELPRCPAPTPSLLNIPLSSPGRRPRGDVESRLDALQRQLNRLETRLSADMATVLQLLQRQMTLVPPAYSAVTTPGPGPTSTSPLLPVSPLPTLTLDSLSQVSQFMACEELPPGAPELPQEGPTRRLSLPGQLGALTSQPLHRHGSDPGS

## CCOC(=O)NC(=O)c1ccsc1NC(=O)c1nc2cnccc2s1
[1]
  CC50 at 72 h: > 100 µM
[2]
  IC50: > 30 µM
[3]
  Activity: 2.3 log10CFU
[4]
  MIC90: 0.089 µM (≈ 0.0335 µg/mL)
[5]
  Activity: >1.7 log10CFU
HepG2 [6]
  CC50: > 100 µM

## Cc1cc(Nc2ncc(Cl)c(Nc3ccccc3S(=O)(=O)C(C)C)n2)c(OC(C)C)cc1C1CCNCC1 [CERITINIB]
[4]
  MIC90: 9 µM (≈ 5.02 µg/mL)

## COc1ncccc1Nc1cc2nc3ccccc3n(-c3ccc(OC(F)(F)F)cc3)c-2c/c1=N\C1CCC(OC)CC1 (stereo unspecified)
[7]
  MIC90: < 8 nM
[8]
  Activity: 1.7 log10CFU

## CCNC(=O)Nc1nc2cc(-c3cnc(C(C)(C)O)nc3)c(F)c([C@H]3CCCO3)c2[nH]1
[9]
  MIC90: 0.07 µM (≈ 0.03 µg/mL)

## N=C(N)NC(=O)c1nc(-c2cc3ccccc3o2)c(N)nc1N
[4]
  MIC: 4 µM (≈ 1.25 µg/mL)

## N[C@@H]1CONC1=O [CYCLOSERINE]
[4]
  MIC: 157 µM (≈ 16 µg/mL)

## CON=C1CCC(CN2CCN(c3nc(=O)c4cc(C(F)(F)F)cc([N+](=O)[O-])c4s3)CC2)CC1 (stereo unspecified)
[10]
  MIC90: 0.028 µM (≈ 0.014 µg/mL)
[11]
  Activity: 1.8 log10CFU

## C[C@H]1COC2(CCN(c3nc(=O)c4cc(C(F)(F)F)cc([N+](=O)[O-])c4s3)CC2)O1 [BTZ-043]
[12]
  Activity: 0.6 log10CFU
A549 [13]
  CC50: 58 µM
[14]
  half-life: 72 min
[15]
  AUC: 899 ng·h/mL
[16]
  bioavailability: 30%
A549 [17]
  Ratio: 4

## CCc1nc2ccc(Cl)cn2c1C(=O)NCc1ccc(N2CCC(c3ccc(OC(F)(F)F)cc3)CC2)cc1 [TELACEBEC]
[4]
  MIC90: 0.011 µM (≈ 0.00613 µg/mL)
[18]
  MIC50: 2.7 nM (≈ 0.0015 µg/mL)
[19]
  Activity: 0.6 log10CFU

## Cc1cccc(OC2CCN(Cc3cc(=O)[nH]c(=O)[nH]3)CC2)c1C [GSK-2556286]
[20]
  Activity: <0.1 µM

## Cc1ccn(C(C)c2nnc(Nc3ccn(Cc4c(F)cccc4Cl)n3)s2)n1 (stereo unspecified)
[21]
  MIC90: 1 µM (≈ 0.418 µg/mL)
[22]
  solubility at 1 h: 9 µM (≈ 3.76 µg/mL)

## CC(Nc1nc(N2CCCCC2)nc2ccccc12)c1ccccc1 (stereo unspecified)
[4]
  MIC80: 25 µM (≈ 8.31 µg/mL)

## C[C@@H]1[C@H]2C[C@@H](C[C@H]1NC(=O)c1cc3c(F)cc(F)cc3[nH]1)C2(C)C
[23]
  Activity: 4.7 log10CFU
[24]
  bioavailability: 96%
[25]
  Activity: 3.6 log10CFU

## O=S1(=O)C[C@H](O)[C@@H](N2CCN(c3ccccc3Cl)CC2)C1
[4]
  MIC: 0.76 µM (≈ 0.251 µg/mL)

## CCOC(=O)NC(=O)c1ccsc1NC(=O)c1nc2ccccc2s1
[3]
  Activity: 2.9 log10CFU
[4]
  MIC90: 0.23 µM (≈ 0.0863 µg/mL)

## CC(=O)NC[C@H]1CN(c2ccc(N3CCOCC3)c(F)c2)C(=O)O1 [LINEZOLID]
[4]
  MIC: 1.5 µM (≈ 0.506 µg/mL)
[26]
  MIC: 1.5 µM (≈ 0.506 µg/mL)

## c1cc2c(s1)CCOC21CCN(Cc2ccc3c(c2)OCCO3)CC1
[4]
  MIC90: 0.3 µM (≈ 0.107 µg/mL)

## COc1ncc(-c2ccc(Cl)cc2)cc1[C@@H](c1ccccc1)[C@@](O)(CCN(C)C)c1cccc2ccccc12
[4]
  MIC90: 0.13 µM (≈ 0.0698 µg/mL)

## O=C(Nc1ccc(N2CCN(c3ccccn3)CC2)c(F)c1)c1ccc2no[n+]([O-])c2c1
[27]
  MIC90: 0.09 µM (≈ 0.0391 µg/mL)

## O=C(N/N=C/c1ccc(Oc2no[n+]([O-])c2S(=O)(=O)c2ccccc2)cc1)c1ccncc1
[28]
  MIC90: 9.8 µM (≈ 4.56 µg/mL)
[29]
  MIC: 1 µM (≈ 0.465 µg/mL)
[30]
  CC50: 43 µM
[31]
  Activity: >6 log10CFU

## O=c1nc(N2CCC3(CC2)OCCO3)sc2c([N+](=O)[O-])cc(C(F)(F)F)cc12
[32]
  fraction unbound: 0.006
A549 [13]
  CC50: > 231 µM
[14]
  half-life: 90 min
[33]
  solubility: < 2.3 µM
[4]
  MIC90: 0.045 µM (≈ 0.0188 µg/mL)
[15]
  AUC: 847 ng·h/mL
[34]
  Activity: 3.4 log10CFU
[16]
  bioavailability: 44%

## O=c1nc(N2CCN(S(=O)(=O)C3CC3)CC2)sc2c([N+](=O)[O-])cc(C(F)(F)F)cc12
HepG2 [35]
  CC50: 17 µM
[36]
  MIC99: 6.5 nM (≈ 0.00302 µg/mL)
[33]
  solubility: 19 µM (≈ 8.82 µg/mL)
[37]
  Activity: 0.5 log10CFU
[38]
  selectivity ratio: 2620

## O=S(=O)(NCCO)c1ccc(-c2nnn(Cc3ccc(F)cn3)n2)cc1
[4]
  MIC: 0.07 µM (≈ 0.0265 µg/mL)
